Consider 5 molecules from article PMC6591177, “Small Molecule IL-36γ Antagonist as a Novel Therapeutic Approach for Plaque Psoriasis” (Scientific Reports, 2019).

Test [1] concerns human IL-36γ evoked CXCL1 release from Human HaCaT cells. Put plainly: human IL-36γ evoked CXCL1 release, human HaCaT cells. It counts as cell-based. Conditions: ± S.D. How it is done:
(§1) The immortalized human keratinocyte cell line HaCaT and mouse fibroblast NIH-3T3 cell line were maintained in culture in DMEM with 10% fetal bovine serum and 1% penicillin/streptomycin added (Sigma). Cells were seeded in 96-well tissue culture plates (Corning) at 25,000 cells per well and allowed to adhere and recover overnight at 37 °C in an incubator. Cells were rinsed with PBS (Sigma) and treated with cytokines diluted in 200 μL/well of the medium (DMEM with 0.5% FBS and 1% penicillin/streptomycin) as indicated. In inhibition mode, the agonist concentration used was at the EC80 for chemokine production and the cells were pre-treated with inhibitors for 30 min prior to adding the agonist. After 24 h of treatment, supernatants were collected and IL-8 and CXCL1[28] levels were assessed using a custom immunoassay (Meso Scale Discovery). EC50/IC50 values were estimated from a four-parameter logistic fit using Prism software (GraphPad).

A further test addresses T1, human IL-36α (Homo sapiens, UniProt Q9UHA7).
T1 construct: using recombinant truncated proteins
T1 sequence (Q9UHA7 6-158): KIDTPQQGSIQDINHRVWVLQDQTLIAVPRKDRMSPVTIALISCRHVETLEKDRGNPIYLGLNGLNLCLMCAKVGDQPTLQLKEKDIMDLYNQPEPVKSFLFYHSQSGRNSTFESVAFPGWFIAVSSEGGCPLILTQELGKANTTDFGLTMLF
Description: Thermal shift assay / affinity, human IL-36α. It counts as binding. Conditions: thermal shift assay at 100 μM (Supplementary Fig. 4). How it is done: (§2) Thermal shift assays[30] were performed on a Roche LightCycler 480 instrument using Sypro Orange Dye (Invitrogen). Reactions consisted of 0.5–2 µM purified recombinant protein in PBS, pH 7.4, a 1/500 dilution of the stock Sypro Orange reagent, and 100 µM test compounds, resulting in a final DMSO concentration of 1%. The samples were heated from 20 °C to 95 °C at a rate of 0.25 °C per second.

For test [2], the target named is T2, human IL-36γ (Homo sapiens, UniProt Q9NZH8).
T2 construct: His6-SUMO-human IL-36γ (18–169); His6-SUMO (N, cleaved yes); made in house; host or cells: E. coli BL21 (DE3)
T2 sequence (Q9NZH8 18-169): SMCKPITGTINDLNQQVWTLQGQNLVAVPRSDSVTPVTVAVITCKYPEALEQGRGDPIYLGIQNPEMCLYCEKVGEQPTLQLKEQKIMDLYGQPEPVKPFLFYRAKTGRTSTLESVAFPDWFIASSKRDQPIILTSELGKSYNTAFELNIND
Put plainly: Thermal shift assay, human IL-36γ. It counts as binding. Conditions: 100 μM compound; read-out: increase of melting temperature of human IL-36γ. How it is done: as §2

In test [3] the test system is IL-36γ evoked CXCL1 release from Mouse NIH-3T3 cells. Description: IL-36γ evoked CXCL1 release, mouse NIH-3T3 cells. Conditions: for IC50: NIH-3T3 cells, n = 4, read-out: IC50 attenuation of CXCL1 release induced by human IL-36γ. It counts as cell-based. How it is done:
as §1

Test [4] has as its system human IL-36γ induced plasma CXCL1. Description: hIL-36γ induced CXCL1 release in mouse plasma. It counts as in vivo. Conditions: C57BL/6 mice, compounds 10, 30 and 100 mg/kg p.o.; antibody i.p. The source says: Female C57BL/6 mice (9–10 weeks old, 19–23 g) were purchased from Charles River Laboratories. All animal procedures were approved by AbbVie’s Institutional Animal Care and Use Committee (IACUC) and performed in accordance with the relevant IACUC guidelines and regulations. To examine engagement of human IL-36γ with antagonists under in vivo conditions, a mouse acute CXCL1 release assay was established which was similar to one previously reported. Plasma CXCL1 secretion was induced by subcutaneous injection of 2 μg human IL-36γ (in 100 μL PBS) into C57BL/6 mice. Blood was withdrawn via cardiac puncture 2 h after the challenge with IL-36γ. A-552 and A-553 were dosed at 10, 30 and 100 mg/kg p.o. 45 min before IL-36γ challenge. Anti-IL36R antibodies were dosed i.p. at 24 hours before IL-36γ challenge. Plasma CXCL1 levels were analyzed using MSD V-PLEX kit.

The target of test [5] is T2, human IL-36γ. Description: Isothermal titration calorimetry. It counts as binding. Conditions: 25 °C, pH 7.5; read-out: KD (ITC). How it is done:
All experiments were carried out on a MicroCal^TM Auto-ITC200 at 25 °C in 50 mM HEPES (pH = 7.5), 150 mM NaCl, 0.5 mM TCEP, 2% DMSO. IL-36γ protein solution was buffer exchanged by gel filtration into the isothermal titration calorimetry (ITC) buffer and diluted to 40 µM. The titrations were conducted using an initial injection of 0.2 µL followed by 19 identical injections of 2 µL of 400 µM compound solution. Thermodynamic parameters were calculated using ∆G = ∆H − T∆S = −RTlnKB, where ∆G, ∆H and ∆S are the changes in free energy, enthalpy and entropy of binding respectively. A single binding site model was employed.

The subject of test [6] is IL-1β evoked IL-8 release from HaCaT cells. Put plainly: IL-1β evoked IL-8 release assay in HaCaT cells. It counts as cell-based, human. To be noted: agonist mode, n = 3. How it is done: as §1
The IL-8 release assays were miniaturized for HTS hit follow-up. Frozen aliquots of HaCaT cells were thawed, added to complete media, mixed, spun down, resuspended in fresh media, and dispensed using the Multidrop384 into black, clear-bottom 384 well plates at a final density of 4000 cells/well. […] Cell viability was assessed using Cell Titer-Glo (Promega) according to the manufacturers’ instructions.

Test [7] relates to 3D human skin equivalents. Put plainly: IL-36γ induced 3D skin equivalent model. It counts as cell-based. Conditions: 0.3 μg/mL hIL-36γ; 10 μM A-552, 10 μg/mL antibody or IL-36Ra; three days. How it is done:
Hematoxylin & eosin (H&E) staining and immunohistochemistry (IHC) were performed using a Leica ST5010 autostainer or Leica Bond RX automated immunostainer. Standardized IHC protocols were used for anti-loricrin staining (Abcam AB85679). Stained tissue slides were digitized for image analysis using a Perkin Elmer P250 whole slide digital pathology slide scanner with 20X objective and extended focus scanning parameters. For quantitative analysis, N = 3 raft samples were analyzed per condition for each stain using whole slide digital analysis software (Indica Labs HALO). Staining was normalized to the length of the raft sample analyzed.
3D skin equivalents (SOR-300-FT-CTR) comprised of human neonatal keratinocytes and fibroblasts were purchased from MatTek, equilibrated for one day in proprietary formulated media (SOR-300-FT-CTR-MM) and then treated as indicated. Treatment groups contained hIL-36γ at 300 ng/mL, 10 μM of A-552, 10 μg/mL anti-IL36R antibody, 10 μg/mL IL-36RA, or 10 μg/mL IgG isotype control either alone or in combination with hIL-36γ. Control skin equivalents were treated with media only. Skin equivalents were treated for three days, with media collected for cytokine release studies at day two and replaced with fresh treatment media. After three days the skin equivalents were either placed in 10% neutral buffered formalin solution (for histology) or frozen (for qRT-PCR).
To measure IL-6, IL-8 and CXCL1 release from 3D skin equivalents diluted sample media collected at day 2 of the treatment (see above) was used in conjunction with V-PLEX multiplex immunoassay for IL-6 and IL-8 and a U-PLEX immunoassay for CXCL1 (Meso Scale Discovery) according to the manufacturers’ protocols.
RNA from frozen 3D skin equivalents was isolated using miRNeasy Mini Kit (Qiagen) per the manufacturers’ instructions. For qRT-PCR determination a CFX384 Real-Time System C1000 Touch Thermocycler was used. […] Each transcript measured was presented as a fold change compared to control using the ∆∆CT method as RNA fold increase where RPLP0 was used as a housekeeping gene.

Test [8] addresses T3, human IL-36R/IL-1RAcP extracellular domain (ECD) knob-in-hole Fc (human, UniProt Q9HB29 20-335; Q9NPH3 21-367).
T3 construct: human IL-36 receptor subunit (IL-36R), extracellular domain; human IL-1RAcP co-receptor subunit, extracellular domain; Both proteins were engineered with an Fc 'knob-in-hole' to force heterodimerisation; also called hIL-36R/IL-1RAcP ECD knob-in-hole Fc; human IL-36R/IL-1RAcP ECD Fc heterodimer; not shown: His tag (from the nickel column and the Tb-anti-His detection)
T3 sequence (looked up) 1: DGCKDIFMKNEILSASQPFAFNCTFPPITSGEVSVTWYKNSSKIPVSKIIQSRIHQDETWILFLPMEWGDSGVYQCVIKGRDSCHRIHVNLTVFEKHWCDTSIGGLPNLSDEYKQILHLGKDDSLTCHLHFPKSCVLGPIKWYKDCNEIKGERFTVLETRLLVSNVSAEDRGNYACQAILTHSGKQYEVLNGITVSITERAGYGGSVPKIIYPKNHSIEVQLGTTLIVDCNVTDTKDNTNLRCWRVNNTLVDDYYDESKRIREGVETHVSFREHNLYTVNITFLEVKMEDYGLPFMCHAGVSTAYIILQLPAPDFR
T3 sequence (looked up) 2: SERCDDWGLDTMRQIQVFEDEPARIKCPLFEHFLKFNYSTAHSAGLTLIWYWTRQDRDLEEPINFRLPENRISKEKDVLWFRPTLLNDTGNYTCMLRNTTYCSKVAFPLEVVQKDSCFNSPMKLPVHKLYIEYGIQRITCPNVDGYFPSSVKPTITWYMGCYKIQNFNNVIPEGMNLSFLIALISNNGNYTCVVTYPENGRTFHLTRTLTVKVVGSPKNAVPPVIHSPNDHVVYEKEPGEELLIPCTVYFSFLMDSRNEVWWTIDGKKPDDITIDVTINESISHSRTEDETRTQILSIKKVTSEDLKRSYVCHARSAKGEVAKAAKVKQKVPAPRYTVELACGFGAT
Put plainly: AlphaScreen or HTRF; TR-FRET, competitive mode: unlabeled human IL-36γ or IL-36Ra titrated against 6 nM Alexa 488 human IL-36γ, receptor heterodimer 1.5 μg/mL, 6 nM Tb-anti-His antibody; Ki by the Cheng-Prusoff equation. Conditions: both partners purified. (In general: Alpha assays give light when donor and acceptor beads are brought close together.)

Entries after “also recorded” stand apart in the source; their conditions may differ.

The Ki is a measure of affinity in units of concentration, obtained from inhibition or displacement. High values mean a looser hold on the target, low ones a stronger hold on the target. By Kd is commonly meant the concentration at which binding is half-saturated. For the molecule `COC(c1ccccc1)(c1ccccc1)[C@@H](Oc1nc(C)cc(-c2ccc(C)c(N)c2)n1)C(=O)O` [Compound A-553], the Ki in [1] turned out to be 3700 ± 2300 nM; in [3] (human IL-36γ evoked CXCL1 release, ± S.D.), 3700 ± 1700 nM. For the same molecule, the “binding / affinity to human IL-36α” value at human IL-36α was “do not bind”. At human IL-36γ [2], the ΔTm at 100 µM was 1.3 °C. For the same molecule, in test [4], the “effect on hIL-36γ induced plasma CXCL1 release (in words)” value is given as “little effect; also recorded: no effect”. Moreover, the dissociation constant Kd on human IL-36γ [5] turned out to be 3000 ± 330 nM.

Broadly, the EC50 is the midpoint of the concentration-response curve. Low values mean greater potency, high ones weaker potency. With “IL-1β: human IL-1β cytokine used in the selectivity assay”, in [6], a half-maximal response (EC50) required 0.0057 ± 0.0038 nM.

B1: mouse IL-36Ra: mouse IL-36 receptor antagonist protein (protein, UniProt Q9QYY1 2-156, looked up)
Interleukin-36 receptor …: MVLSGALCFRMKDSALKVLYLHNNQLLAGGLHAEKVIKGEEISVVPNRALDASLSPVILGVQGGSQCLSCGTEKGPILKLEPVNIMELYLGAKESKSFTFYRRDMGLTSSFESAAYPGWFLCTSPEADQPVRLTQIPEDPAWDAPITDFYFQQCD
Broadly, the IC50 is the concentration needed to halve the response being measured. As for B1, in test [3], the half-maximal inhibitory concentration (IC50) was found to be 19 ± 9 nM.

B2: human IL-36Ra: recombinant soluble human IL-36 receptor antagonist (2–155) (protein)
chain: VLSGALCFRMKDSALKVLYLHNNQLLAGGLHAGKVIKGEEISVVPNRWLDASLSPVILGVQGGSQCLSCGVGQEPTLTLEPVNIMELYLGAKESKSFTFYRRDMGLTSSFESAAYPGWFLCTVPEADQPVRLTQLPENGGWNAPITDFYFQQCD
modifications: left off: His6, N-terminal, cleaved | SUMO, N-terminal, cleaved
Regarding B2, in test [7], the “effect on hIL-36γ induced changes in morphology, gene expression and cytokine production” value is given as “fully attenuated”. In addition, the concentration for half-maximal inhibition (IC50) in test [3] was 23 ± 10 nM.

B3: human IL-36γ (18–169) (ligand, UniProt Q9NZH8 18-169, looked up)
chain: T2 sequence (Q9NZH8 18-169)
notes: human IL-36γ, residues 18-169; also called hIL-36γ; unlabeled IL-36γ; source: E. coli BL21 (DE3), purified (nickel column, ULP1 cleavage, Superdex 75 gel filtration); not shown: His6, N-terminal, cleaved; SUMO, N-terminal, cleaved
In [8], B3 had a Ki of 0.4 nM.
